Entries after “also recorded” stand apart in the source; their conditions may differ.
How the values were obtained:
[1] = Hepatic microsome stability assay, rat; type: in vitro ADME; conditions: for % Remaining: rat microsomes
Procedure: Hepatic Microsome Assay. Hepatic microsomes stability assays were performed in accordance with known methods (Peddibhotla, et al. (2013) ACS Med. Chem. Lett. 4:846-851). Briefly, 3 μL of 25 μM compound solution in acetonitrile were incubated with 123 μL of mouse, human or rat liver microsomes (Xenotech, Kansas City, KS). After preincubation at 37° C. for 10 minutes, enzyme reactions were initiated by adding 120 !at of NADPH-generating system (2 mM NADP+, 10 mM glucose-6-phosphate, 0.4 U/ml glucose-6-phosphate dehydrogenase, and 5 mM MgCl2) in the presence of 100 mM potassium phosphate buffer (pH 7.4). […] The microsomal concentrations used were 1.0 mg/mL. Compounds were incubated in microsomes for 0, 5, 15, 30 and 60 minutes. The reactions were stopped by the addition of ice cold ACN and the reaction mixtures were centrifuged at 10,000 g for 10 minutes before the supernatant was removed for analysis. A 10 μL portion of the resulting extract was injected on a Thermo HPLC system equipped with PAL CTC plate sampler (96-well plate), Dionex Ultimate 3000 binary pump (flow rate at 0. 600 mL/min), Dionex Ultimate 3000 thermostatted column compartment (temperature at 40° C.), Thermo Endura Mass Spectrometer (ESI source), using a Thermo Scientific Accucore C18 (2.6 μM, 2.1×50 mm) column. A gradient was run starting at 95% H2O (0.1% formic acid) and 5% ACN (0. 1% formic acid) during the first 0. 5 min, then under gradient condition of 5-100% ACN (0.1% formic acid) from minute 0. 5 to 3.5, finishing at 95% H2O (0.1% formic acid) and 5% ACN (0.1% formic acid) over 0.5 min, with another 1 min at 95:5 to re-equilibrate.

[2] = tested on: diet-induced obese mice; assay: Efficacy in diet-induced obese mice; type: in vivo
Procedure: Alkaline Phosphatase (ALP) Quantitation. Increased levels of ALP in blood are considered indicative of liver function abnormalities. Thus, ALP was assayed in accordance with known methods (Kiselyuk, et al. (2012) Chem. Biol. 19(7):806-818). Briefly, prior to sacrifice, blood was drawn and analyzed using a VetScan blood analyzer, measuring alkaline phosphatase (ALP, IU/L), alanine aminotransferase (ALT, IU/L), gamma glutamyl transferase (GGT, IU/L), bile acids (BA, μmol/L), total bilirubin (TBIL, mg/dL), albumin (ALB, g/dL), blood urea nitrogen (BUN, mg/dL), and cholesterol (CHOL, mg/dL).
Triglyceride (TG) Quantitation. TG quantity was assayed using a Triglyceride Colorimetric Assay Kit (Cayman Chemicals; Ann Arbor, MI) according to the manufacturer's instructions.
Lipid Droplet Size Analysis. All slides were scanned at a magnification of 20× using the Aperio Scanscope FL system (Aperio Technologies Inc.; Vista, CA). The appropriate dyes were assigned and illumination levels were calibrated using a preset procedure; the parameters were saved and applied to all slides. The acquired digital images represented whole tissue sections. Sections were evaluated for image quality. All acquired images were subsequently placed in dedicated project folders, and stored on a designated local server. Selected areas of the slides were selected using Aperio Imagescope (version 12 Aperio Technologies Inc.). For analysis, slides were viewed, whole tissue areas were selected and analyzed using the web-based Image Scope viewer. Slides were quantified using the ‘Color Deconvolution v9’ algorithm for oil redo staining (version 11 Aperio Technologies Inc.). The algorithm was optimized using a preset procedure to maximize the strong red color positive oil droplets signal to noise ratio and the subsequent macro was saved and applied to all slides.
HNF4α Immunostaining in Organ Samples. Samples were harvested from mice, fixed in 4% paraformaldehyde and embedded in paraffin or O.C.T. freezing media (Sakura Finetek; Torrance, CA). Slides of 5 μm thickness were washed four times with PBS and treated with 0.3% Triton™ in PBS for 10 minutes. Antigen retrieval was carried out with CitriSolv™ (Fisher Scientific; Waltham, MA) for 10 minutes in sub-boiling temperature. After washing with PBS for 10 minutes, slides were incubated in blocking solution with 5% normal donkey serum (Jackson Immuno Research; West Grove, PA) for 60 minutes at room temperature. Cells were fixed in 4% paraformaldehyde for 15 minutes on 4° C. and washed with PBS, treated with 0.3% Triton™ in PBS for 10 minutes and blocked as previously described for slide samples.
Primary Antibodies. HNF4α antibodies were used (#sc-6556, Santa Cruz Biotechnology; Santa Cruz, CA and #3113, Cell Signaling Technology; Danvers, MA). For fluorescent imaging, samples were incubated with ALEXA FLOUR® 488 green-fluorescent dye or Rhodamine labeled anti-mouse, rabbit or goat and nuclei were counterstained with DAPI (4′,6-diamidino-2-phenylindole). Controls using secondary antibodies alone were used to ensure specificity of immunostaining. Fluorescently labeled sections were analyzed with a conventional inverted microscope (Olympus, PlanFl 40x/0.60) or with a confocal microscope equipped with a krypton/argon laser.
The experiments were performed to establish feedingand treatment regimens, dosing and administration regimens, as well as to provide evidence of beneficial effects of N-trans-caffeoyltyramine on glucose and lipid homeostasis, hepatic steatosis, -cell function and hepatocyte function. Twelve mice (10 weeks old) were fed a high-fat diet for four weeks to induce obesity. After four weeks, and while on the high-fat diet, six mice were administered 5% DMSO or 120 mg/kg N-trans-caffeoyltyramine twice a day intraperitoneally for 14 days. One hour after the last i.p. injection of DMSO or N-trans-caffeoyltyramine, the animals were sacrificed and blood and organ (liver, kidney, gut and pancreas) samples were collected. […]

O=C(/C=C/c1ccc(O)c(O)c1)NCCc1ccc(O)cc1 [N-trans-caffeoyltyramine]
half-life at 1 μM ([1]; liver microsomes, pH 7.4, 1 μM): 2.1 min | microsomal CLint at 1 μM ([1]; liver microsomes, pH 7.4, 1 μM, read-out: Clearance Rate): 674 µL/min/mg | half-life at 10 μM ([1]; liver microsomes, pH 7.4, 10 μM): 22.4 min | microsomal CLint at 10 μM ([1]; liver microsomes, pH 7.4, 10 μM, read-out: Clearance Rate): 30.9 µL/min/mg | % Remaining ([1]; 1 μM): 0.6% | % Remaining ([1]; 10 μM): 33.6% | lipid accumulation in the liver ([2]; 120 mg/kg twice a day i.p. for 14 days vs DMSO): decreased lipid accumulation | lipid droplet sizes in the liver ([2]; 120 mg/kg twice a day i.p. for 14 days vs DMSO, FIG. 8): reduced | levels of triglycerides ([2]; 120 mg/kg twice a day i.p. for 14 days vs DMSO, FIG. 10): significantly reduced | HNF4α expression in the pancreas ([2]; 120 mg/kg twice a day i.p. for 14 days vs DMSO, FIG. 11): increased | HNF4α expression in intestines ([2]; 120 mg/kg twice a day i.p. for 14 days vs DMSO, FIG. 12): increased | HNF4α expression in the liver (nuclear expression) ([2]; 120 mg/kg twice a day i.p. for 14 days vs DMSO, P=0.0042, FIG. 7): significantly increased; also recorded: increases nuclear expression of HNF4α | weight loss, sickness, or abnormal behaviors compared to the control group ([2]; 120 mg/kg twice a day i.p. for 14 days, high-fat diet mice): None of the treated mice exhibited weight loss, sickness, or abnormal behaviors | levels of alkaline phosphatase ([2]; blood, 120 mg/kg twice a day i.p. for 14 days vs DMSO, FIG. 9): significantly reduced

Reference: patent US20240158339A1, “TYRAMINE CONTAINING HYDROXYCINNAMIC ACID AMIDE DERIVATIVES AND METHODS OF USE THEREOF” (Brightseed, Inc., priority 2018, published 2024)
